Assay results as given in patent US8431704B2, “Quinoline or isoquinoline substituted P2X7 antagonists” (Janssen Pharmaceutica NV, priority 2008, dated 2013).

molecular target: T1, P2X7 (Homo sapiens, UniProt Q99572); experiment: THP-1 YoPro uptake assay (BzATP-stimulated Yo-Pro-1 uptake); assay type: cell-based; conditions: Table F-10, THP-1 cells, read-out: mean pIC50 values for P2X7 antagonism (converted)
T1 construct: endogenous in cells; host or cells: THP-1 human monocytic cell line
T1 sequence (Q99572 1-595): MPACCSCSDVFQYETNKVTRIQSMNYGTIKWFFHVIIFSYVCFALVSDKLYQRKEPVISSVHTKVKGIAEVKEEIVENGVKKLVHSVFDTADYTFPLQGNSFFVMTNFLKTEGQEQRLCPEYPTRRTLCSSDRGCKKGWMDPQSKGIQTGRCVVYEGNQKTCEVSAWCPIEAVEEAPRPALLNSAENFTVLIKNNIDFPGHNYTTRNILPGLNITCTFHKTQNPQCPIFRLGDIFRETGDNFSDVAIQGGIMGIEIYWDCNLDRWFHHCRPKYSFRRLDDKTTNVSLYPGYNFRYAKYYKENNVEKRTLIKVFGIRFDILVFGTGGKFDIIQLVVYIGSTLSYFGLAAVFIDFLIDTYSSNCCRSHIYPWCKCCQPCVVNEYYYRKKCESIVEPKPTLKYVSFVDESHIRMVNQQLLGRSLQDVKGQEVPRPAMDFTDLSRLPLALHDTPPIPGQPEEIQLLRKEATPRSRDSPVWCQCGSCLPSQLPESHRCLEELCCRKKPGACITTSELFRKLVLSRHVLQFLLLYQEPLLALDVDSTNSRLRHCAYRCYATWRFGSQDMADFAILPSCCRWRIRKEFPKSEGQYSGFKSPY
Protocol: The human monocytic cell line THP-1 was grown as a suspension culture in RPMI medium supplemented with 10% fetal bovine serum, penicillin/streptomycin (50 units/mL), 2 mM L-glutamine, and 20 μM 2-mercaptoethanol. Cells were maintained at a density below 0.5 million per mL. On the day of the assay, cells were washed twice with assay buffer, and then resuspended at 2 million per mL in assay buffer containing 2 μM Yo-Pro-1 (Invitrogen). The assay buffer contained (in mM): 280 sucrose, 5 KCl, 10 glucose, 10 HEPES, 5 N-methyl-D-glucamine. The cells were added at 200 k/well into poly-D-lysine-coated black-walled 96-well plates (Biocoat, Becton-Dickinson). Test compounds were dissolved in DMSO, and then added at the test concentration to each well of the 96-well plate. Concentration dependence of block was determined by exposing each well of cells in duplicate rows of a 96-well plate to a serial dilution of test compound. The concentration series usually started at 10 μM with a three-fold decrement in concentration. The final DMSO concentration seen by the cells was less than 0.5%. Cells were incubated with test compounds for 30 minutes at 37° C. A background reading was taken using a Gemini SpectraMax with 490 nm excitation and 530 nm emission. […] After incubation for 60 minutes at 37° C., an endpoint read was taken in the SpectraMax plate reader. The amount of block of the response was determined by comparing the fluorescence intensity in each well to the average of control wells on each plate. The control wells contained either a known antagonist of P2X7 (positive controls) or a concentration of DMSO equal to that in the test wells. Data were analyzed using a nonlinear regression program (Origin, OriginLab, MA). Results are reported as the −log of the IC50 (pIC50).

IC50 [nM] | SMILES
1.12 | N[C@@H]1CCCN(c2ccc3c(C(=O)NCC(c4cnc(C(F)(F)F)nc4)N4CCC(F)(F)CC4)c(Cl)ccc3n2)C1 (some centres unmarked) [Compound 423]
2.24 | N[C@H]1CCCN(c2ccc3c(C(=O)NCC(c4cnc(C(F)(F)F)nc4)N4CCC(F)(F)CC4)c(Cl)ccc3n2)C1 (some centres unmarked) [Compound 424]
6.31 | O=C(NCC(c1cnc(C(F)(F)F)nc1)N1CCC(F)(F)CC1)c1c(Cl)ccc2nc(N3CCN(C4CC4)CC3)ccc12 (centres unmarked) [Compound 425]
5.75 | CC(C)CN1CCN(c2ccc3c(C(=O)NCC(c4cnc(C(F)(F)F)nc4)N4CCC(F)(F)CC4)c(Cl)ccc3n2)CC1 (centres unmarked) [Compound 426]
3.39 | CC(C)N1CCN(c2ccc3c(C(=O)NCC(c4cnc(C(F)(F)F)nc4)N4CCC(F)(F)CC4)c(Cl)ccc3n2)CC1 (centres unmarked) [Compound 427]
3.24 | CCN1CCN(c2ccc3c(C(=O)NCC(c4cnc(C(F)(F)F)nc4)N4CCC(F)(F)CC4)c(Cl)ccc3n2)CC1 (centres unmarked) [Compound 428]
22.4 | O=C(NCC(c1cnc(C(F)(F)F)nc1)N1CCOCC1)c1c(Cl)ccc2nc(NCCCO)ccc12 (centres unmarked) [Compound 430]
100000 | O=C(NCC(c1cnc(C(F)(F)F)nc1)N1CCOCC1)c1c(Cl)ccc2nc(NCC3CCCO3)ccc12 (centres unmarked) [Compound 432]
11.5 | CNCCCN(C)c1ccc2c(C(=O)NCC(c3cnc(C(F)(F)F)nc3)N3CCOCC3)c(Cl)ccc2n1 (centres unmarked) [Compound 433]
14.5 | O=C(NCC(c1cnc(C(F)(F)F)nc1)N1CCOCC1)c1c(Cl)ccc2nc(NCc3ccccc3)ccc12 (centres unmarked) [Compound 434]
77.6 | O=C(NCC(c1cnc(C(F)(F)F)nc1)N1CCOCC1)c1c(Cl)ccc2nc(NCc3cccnc3)ccc12 (centres unmarked) [Compound 435]
31.6 | CC1CN(c2ccc3c(C(=O)NCC(c4cnc(C(F)(F)F)nc4)N4CCOCC4)c(Cl)ccc3n2)CC(C)N1 (centres unmarked) [Compound 436]
155 | Cc1ccccc1CNc1ccc2c(C(=O)NCC(c3cnc(C(F)(F)F)nc3)N3CCOCC3)c(Cl)ccc2n1 (centres unmarked) [Compound 437]
22.9 | O=C(NCC(c1cnc(C(F)(F)F)nc1)N1CCOCC1)c1c(Cl)ccc2nc(NCc3ccc(F)cc3)ccc12 (centres unmarked) [Compound 438]
40.7 | O=C(NCC(c1cnc(C(F)(F)F)nc1)N1CCOCC1)c1c(Cl)ccc2nc(NCCN3CCOCC3)ccc12 (centres unmarked) [Compound 439]
37.2 | O=C(NCC(c1cnc(C(F)(F)F)nc1)N1CCOCC1)c1c(Cl)ccc2nc(NCc3ccc4c(c3)OCO4)ccc12 (centres unmarked) [Compound 440]
24.5 | O=C(NCC(c1cnc(C(F)(F)F)nc1)N1CCOCC1)c1c(Cl)ccc2nc(N3CCC4(CC3)OCCCO4)ccc12 (centres unmarked) [Compound 441]
224 | O=C(NCC(c1cnc(C(F)(F)F)nc1)N1CCOCC1)c1c(Cl)ccc2nc(N3CCC(N4CCCC4=O)CC3)ccc12 (centres unmarked) [Compound 442]
282 | CC(=O)N1C[C@H]2CC[C@@H]1N(c1ccc3c(C(=O)NCC(c4cnc(C(F)(F)F)nc4)N4CCOCC4)c(Cl)ccc3n1)C2 (some centres unmarked) [Compound 443]
25.7 | O=C(NCC(c1cnc(C(F)(F)F)nc1)N1CCOCC1)c1c(Cl)ccc2nc(N3CCCNCC3)ccc12 (centres unmarked) [Compound 444]
23.4 | O=C(NCC(c1cnc(C(F)(F)F)nc1)N1CCOCC1)c1c(Cl)ccc2nc(N3CCC(c4n[nH]c(=O)[nH]4)CC3)ccc12 (centres unmarked) [Compound 445]
34.7 | O=C(NCC(c1cnc(C(F)(F)F)nc1)N1CCOCC1)c1c(Cl)ccc2nc(N3CCC(n4cn[nH]c4=O)CC3)ccc12 (centres unmarked) [Compound 446]
309 | O=C(NCC(c1cnc(C(F)(F)F)nc1)N1CCOCC1)c1c(Cl)ccc2nc(NCc3cc(F)cc(F)c3)ccc12 (centres unmarked) [Compound 447]
19.5 | O=C(NCC(c1cnc(C(F)(F)F)nc1)N1CCOCC1)c1c(Cl)ccc2nc(N3CCC(O)CC3)ccc12 (centres unmarked) [Compound 452]
20.9 | CC1CN(c2ccc3c(C(=O)NCC(c4cnc(C(F)(F)F)nc4)N4CCOCC4)c(Cl)ccc3n2)CCO1 (centres unmarked) [Compound 453]
19.1 | C[C@H]1CCCN(c2ccc3c(C(=O)NCC(c4cnc(C(F)(F)F)nc4)N4CCOCC4)c(Cl)ccc3n2)C1 (some centres unmarked) [Compound 454]
25.7 | O=C(NCC(c1cnc(C(F)(F)F)nc1)N1CCOCC1)c1c(Cl)ccc2nc(N3CCN(CCO)CC3)ccc12 (centres unmarked) [Compound 455]

IC50 [nM] | SMILES
7.24 | CC(CO)Nc1ccc2c(C(=O)NCC(c3cnc(C(F)(F)F)nc3)N3CCOCC3)c(Cl)ccc2n1 (centres unmarked) [Compound 456]
0.955 | CCC(C)Nc1ccc2c(C(=O)NCC(c3cnc(C(F)(F)F)nc3)N3CCOCC3)c(Cl)ccc2n1 (centres unmarked) [Compound 457]
3.02 | O=C(NCC(c1cnc(C(F)(F)F)nc1)N1CCOCC1)c1c(Cl)ccc2nc(N3CC(O)C3)ccc12 (centres unmarked) [Compound 458]
2.63 | O=C(NCC(c1cnc(C(F)(F)F)nc1)N1CCOCC1)c1c(Cl)ccc2nc(N3CCCOCC3)ccc12 (centres unmarked) [Compound 459]
8.91 | O=C(NCC(c1cnc(C(F)(F)F)nc1)N1CCOCC1)c1c(Cl)ccc2nc(N3C[C@@H]4CN[C@H]3C4)ccc12 (some centres unmarked) [Compound 460]
107 | CC(=O)N1C[C@@H]2C[C@H]1N(c1ccc3c(C(=O)NCC(c4cnc(C(F)(F)F)nc4)N4CCOCC4)c(Cl)ccc3n1)C2 (some centres unmarked) [Compound 461]
9.12 | CCN(CC)c1ccc2c(C(=O)NCC(c3cnc(C(F)(F)F)nc3)N3CCOCC3)c(Cl)ccc2n1 (centres unmarked) [Compound 462]
380 | O=C(O)CCCNc1ccc2c(C(=O)NCC(c3cnc(C(F)(F)F)nc3)N3CCOCC3)c(Cl)ccc2n1 (centres unmarked) [Compound 463]
117 | O=C(NCC(c1cnc(C(F)(F)F)nc1)N1CCOCC1)c1c(Cl)ccc2nc(N3CCC(C(=O)O)CC3)ccc12 (centres unmarked) [Compound 464]
7.76 | O=C(NCC(c1cnc(C(F)(F)F)nc1)N1CCC(F)(F)CC1)c1c(Cl)ccc2nc(N3CC(O)C3)ccc12 (centres unmarked) [Compound 465]
8.13 | O=C(NCC(c1cnc(C(F)(F)F)nc1)N1CCC(F)(F)CC1)c1c(Cl)ccc2nc(N3CCCOCC3)ccc12 (centres unmarked) [Compound 466]
6.92 | CCC(C)Nc1ccc2c(C(=O)NCC(c3cnc(C(F)(F)F)nc3)N3CCC(F)(F)CC3)c(Cl)ccc2n1 (centres unmarked) [Compound 467]
22.4 | O=C(NCC(c1cnc(C(F)(F)F)nc1)N1CCC(F)(F)CC1)c1c(Cl)ccc2nc(NC3CCOCC3)ccc12 (centres unmarked) [Compound 468]
7.76 | O=C(NCC(c1cnc(C(F)(F)F)nc1)N1CCC(F)(F)CC1)c1c(Cl)ccc2nc(N3CC[C@@H](O)C3)ccc12 (some centres unmarked) [Compound 484]
2.24 | O=C(NCC(c1cnc(C(F)(F)F)nc1)N1CCC(F)(F)CC1)c1c(Cl)ccc2nc(N3CCNCC3)ccc12 (centres unmarked) [Compound 485]
3.8 | CC(C)Nc1ccc2c(C(=O)NCC(c3cnc(C(F)(F)F)nc3)N3CCC(F)(F)CC3)c(Cl)ccc2n1 (centres unmarked) [Compound 491]
2.45 | CNc1ccc2c(C(=O)NCC(c3cnc(C(F)(F)F)nc3)N3CCC(F)(F)CC3)c(Cl)ccc2n1 (centres unmarked) [Compound 492]
8.71 | O=C(NCC(c1cnc(C(F)(F)F)nc1)N1CCC(F)(F)CC1)c1c(Cl)ccc2nc(NC3CC3)ccc12 (centres unmarked) [Compound 493]
14.1 | C[C@@H]1CN(c2ccc3c(C(=O)NCC(c4cnc(C(F)(F)F)nc4)N4CCC(F)(F)CC4)c(Cl)ccc3n2)C[C@H](C)O1 (some centres unmarked) [Compound 494]
7.41 | O=C(NCC(c1cnc(C(F)(F)F)nc1)N1CCC(F)(F)CC1)c1c(Cl)ccc2nc(NCCO)ccc12 (centres unmarked) [Compound 495]
6.61 | CC(C)Nc1ccc2c(C(=O)NCC(c3cnc(C(F)(F)F)nc3)N3CCOCC3)c(Cl)ccc2n1 (centres unmarked) [Compound 496]
6.17 | O=C(NCC(c1cnc(C(F)(F)F)nc1)N1CCOCC1)c1c(Cl)ccc2nc(NCC3CC3)ccc12 (centres unmarked) [Compound 497]
9.12 | O=C(NCC(c1cnc(C(F)(F)F)nc1)N1CCOCC1)c1c(Cl)ccc2nc(NCCO)ccc12 (centres unmarked) [Compound 498]
20.9 | O=C(NCC(c1cnc(C(F)(F)F)nc1)N1CCOCC1)c1c(Cl)ccc2nc(N3CC[C@@H](O)C3)ccc12 (some centres unmarked) [Compound 499]
10.2 | CNc1ccc2c(C(=O)NCC(c3cnc(C(F)(F)F)nc3)N3CCOCC3)c(Cl)ccc2n1 (centres unmarked) [Compound 500]
10.2 | O=C(NCC(c1cnc(C(F)(F)F)nc1)N1CCOCC1)c1c(Cl)ccc2nc(NC3CC3)ccc12 (centres unmarked) [Compound 501]
